Test results from patent US10301272B2, “Carboxamide or sulfonamide substituted thiazoles and related derivatives as modulators for the orphan nuclear receptor ROR[γ]” (Phenex Pharmaceuticals AG, priority 2012, dated 2019).
Like-named read-outs stand apart in the source and are kept apart here.

Key:
RORγ = RORγ (Homo sapiens, UniProt P51449); assay: RORγ Gal4 Reporter Gene Assay; type: cell-based; conditions: for IC50: 293T cells
Procedure, shortened: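 Cells at 5×10^5/well were transfected with RORγ fragments fused to the GAL4 DNA-binding domain (CMV promoter), a 5×GAL4-site firefly luciferase reporter and CMV-Renilla luciferase for normalization. About 4 h later serum-free MEM and compound were added (vehicle ≤0.1%). Cultures at 37 °C, 5% CO2; at least triplicates.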

[1] = molecular target: RORγ ligand binding domain (LBD) (Homo sapiens (Human), UniProt P51449); assay: TR-FRET Activity Assay (ligand sensing assay, LANCE); conditions: for pIC50 (FRET): TR-FRET, interaction of RORγ-LBD with coactivator peptide
Chain of RORγ ligand binding domain (LBD) (P51449 269-508): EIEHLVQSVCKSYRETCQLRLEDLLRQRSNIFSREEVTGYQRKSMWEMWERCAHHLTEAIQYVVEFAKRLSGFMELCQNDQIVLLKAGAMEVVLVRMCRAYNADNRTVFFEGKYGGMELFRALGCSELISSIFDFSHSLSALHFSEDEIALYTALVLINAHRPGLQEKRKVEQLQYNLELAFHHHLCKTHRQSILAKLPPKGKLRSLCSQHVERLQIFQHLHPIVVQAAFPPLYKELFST
Excerpt: The ligand-binding domain (LBD) of RORγ was expressed as fusion protein with GST in BL-21 (BL3) cells using the vector pDEST15. Cells were lysed by lysozyme-treatment and sonication, and the fusion proteins purified over glutathione sepharose (Pharmacia) according to the manufacturers instructions. For screening of compounds for their influence on the RORγ-peptide interaction, the LANCE technology (Perkin Elmer) was applied. This method relies on the binding dependent energy transfer from a donor to an acceptor fluorophor attached to the binding partner of interest. For ease of handling and reduction of background from compound fluorescence LANCE technology makes use of generic fluorophore labels and time resolved detection assays were done in a final volume of 25 μL in a 384 well plate, in a Tris-based buffer system (20 mM Tris-HCl pH 6.8; 60 mM KCl, 1 mM DTT; 5 mM MgCl2; 35 ng/μL BSA), containing 20-60 ng/well recombinantly expressed RORγ-LBD fused to GST, 200-600 nM N-terminally biotinylated peptide, 200 ng/well Streptavidin-xlAPC conjugate (Prozyme) and 6-10 ng/well Eu W1024-antiGST (Perkin Elmer). DMSO content of the samples was kept at 1%.
After generation of the Tris-based buffer system, the potentially RORγ modulating ligands were diluted. […] The LANCE signal was detected by a Perkin Elmer EnVision™ Multilabel Counter. […] Ligands that promote the complex formation induce a concentration-dependent increase in time-resolved fluorescent signal.
Y is the response. Y starts at Bottom and goes to Top with a sigmoidal shape.
This is identical to the “four parameter logistic equation”. The IC50 values are calculated using this equation.

[2] = firefly (FF) luciferase, read-out: pIC50 (FF) (converted)
[3] = renilla normalised (RENnorm) luciferase, read-out: pIC50 (REN) (converted)

Chain of RORγ (P51449 whole entry, looked up, the tested form may be a part): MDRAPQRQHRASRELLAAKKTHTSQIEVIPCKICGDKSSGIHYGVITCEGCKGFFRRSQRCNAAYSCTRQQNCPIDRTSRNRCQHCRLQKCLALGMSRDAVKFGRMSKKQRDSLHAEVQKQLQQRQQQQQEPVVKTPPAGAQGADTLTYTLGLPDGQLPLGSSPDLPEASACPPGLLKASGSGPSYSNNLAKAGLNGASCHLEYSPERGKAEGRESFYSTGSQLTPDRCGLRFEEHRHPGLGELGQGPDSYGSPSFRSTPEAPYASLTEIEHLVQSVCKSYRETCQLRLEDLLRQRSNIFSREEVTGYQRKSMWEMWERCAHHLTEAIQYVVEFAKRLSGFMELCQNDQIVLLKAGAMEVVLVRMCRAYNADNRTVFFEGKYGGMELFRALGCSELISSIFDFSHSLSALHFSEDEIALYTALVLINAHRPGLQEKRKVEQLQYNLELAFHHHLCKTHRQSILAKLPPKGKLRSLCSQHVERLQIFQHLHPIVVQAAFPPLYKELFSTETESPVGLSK

Compound	pIC50 (FF) (RORγ)	pIC50 (REN) (RORγ)	pIC50 (FRET) [1]	IC50 (RORγ; [2])	IC50 (RORγ; [3])	IC50 [1]
CC(C)(C)NS(=O)(=O)c1ccc(-c2sc(C(=O)NC3CC3)nc2CC2CCCCC2)c(Cl)c1Cl [6/31]	7.3/8.0/8.0	7.3/8.0/8.0	7.3/8.0/8.0	–	–	–
CC(C)(C)NS(=O)(=O)c1ccc(-c2sc(C(=O)NC3CSC3)nc2CC2CCCCC2)c2ccccc12 [6/14]	6.8/8.7/8.7	6.8/8.7/8.7	6.8/8.7/8.7	–	–	–
CC1(c2cc(-c3sc(C(=O)N[C@H]4C[C@H](C(=O)O)C4)nc3CC3CCCCC3)cc(C(F)(F)F)c2)CC1 [9/8]	6.5/7.1/7.1	6.5/7.1/7.1	6.5/7.1/7.1	–	–	–
CC(C)(C)NS(=O)(=O)c1ccc(-c2sc(C(=O)NC3CCS(=O)(=O)CC3)nc2CC2CCCCC2)cc1C(C)(C)O [6/26]	6.6/7.7/7.8	6.6/7.7/7.8	6.6/7.7/7.8	–	–	–
CC(C)(CCNC(=O)c1nc(CC2CCCCC2)c(-c2cc(C(C)(C)C)cc(C3(C)CC3)c2)s1)C(=O)O [Example 7, 4-(5-(3-(tert-Butyl)-5-(1-methylcyclopropyl)phenyl)-4-(cyclohexylmehthyl)thiazole-2-carboxamido)-2,2-dimethylbutanoic acid]	6.3/7.0/7.0	6.3/7.0/7.0	6.3/7.0/7.0	–	–	–
CC(C)(O)c1cc(-c2sc(C(=O)N[C@H]3C[C@@H](C(=O)O)C3)nc2CC2CCCCC2)cc(C2(C)CC2)c1 [9/10]	6.3/7.2/7.2	6.3/7.2/7.2	6.3/7.2/7.2	–	–	–
CC(C)(C)NS(=O)(=O)c1ccc(-c2sc(C(=O)N3CC4CC(C3)O4)nc2CC2CCCCC2)c(Cl)c1Cl [6/44]	7.4/7.8/8.0	7.4/7.8/8.0	7.4/7.8/8.0	–	–	–
CC(C)(C)NS(=O)(=O)c1ccc(-c2sc(C(=O)NC3CCS(=O)(=O)CC3)nc2CC2CCCCC2)c2ccccc12 [6/6]	6.7/9.0/9.0	6.7/9.0/9.0	6.7/9.0/9.0	–	–	–
CNC(=O)C(C)(C)CCNC(=O)c1nc(CC2CCCCC2)c(-c2ccc(S(=O)(=O)NC(C)(C)C)c(C(F)(F)F)c2)s1 [Example 10/1]	6.2/7.0/7.1	6.2/7.0/7.1	6.2/7.0/7.1	–	–	–
CC(C)(C)NS(=O)(=O)c1ccc(-c2sc(C(=O)N[C@H]3C[C@H](C(=O)O)C3)nc2CC2CCCCC2)c(OC(F)F)c1Cl [21/3]	–	–	–	10 nM	5.01 nM	398 nM
CC1(c2cc(C(=O)NC3(C#N)CC3)cc(-c3sc(C(=O)NC4CCS(=O)(=O)CC4)nc3CC3CCCCC3)c2)CC1 [10/2]	6.6/7.3/7.4	6.6/7.3/7.4	6.6/7.3/7.4	–	–	–
O=C(c1nc(CC2CCCCC2)c(-c2ccc(S(=O)(=O)NC3CS(=O)(=O)C3)c3ccccc23)s1)N1CC2(CCS(=O)(=O)CC2)C1 [14/3]	6.6/6.4/6.4	6.6/6.4/6.4	6.6/6.4/6.4	–	–	–
CC(C)(C)NS(=O)(=O)c1ccc(-c2sc(C(=O)NC34CC(C(=O)O)(C3)C4)nc2CC2CCCCC2)c(Cl)c1Cl [6/38]	6.8/7.8/7.9	6.8/7.8/7.9	6.8/7.8/7.9	–	–	–
CC(C)(C)NS(=O)(=O)c1ccc(-c2oc(C(=O)NC3CCS(=O)(=O)CC3)nc2CC2CCCCC2)c(Cl)c1Cl [100/16]	6.6/8.4/8.2	6.6/8.4/8.2	6.6/8.4/8.2	–	–	–
CC(C)(C)NS(=O)(=O)c1ccc(-c2oc(C(=O)N3CC4(CCS(=O)(=O)CC4)C3)nc2CC2CCCCC2)c2ccccc12 [100/9]	6.3/8.5/8.5	6.3/8.5/8.5	6.3/8.5/8.5	–	–	–
CC(C)(C)NS(=O)(=O)c1ccc(-c2nc(C(=O)NC34CCC(C(=O)O)(CC3)CC4)oc2CC2CCCCC2)c2ccccc12 [Example 103/1]	6.2/7.4/7.4	6.2/7.4/7.4	6.2/7.4/7.4	–	–	–
CC(C)(C)NS(=O)(=O)c1ccc(-c2sc(C(=O)NC3CCS(=O)(=O)CC3)nc2CC2CCCCC2)c2ccncc12 [21/13]	6.3/7.9/7.9	6.3/7.9/7.9	6.3/7.9/7.9	–	–	–
CC(C)(C)NS(=O)(=O)c1ccc(-c2oc(C(=O)NCC3(O)CCOCC3)nc2CC2CCCCC2)c2ccccc12 [100/5]	6.3/8.1/8.2	6.3/8.1/8.2	6.3/8.1/8.2	–	–	–
CC(C)(C)c1cc(-c2oc(C(=O)N[C@H]3C[C@H](C(=O)O)C3)nc2CC2CCCCC2)cc(C2(C)CC2)c1 [100/20]	6.0/6.8/7.0	6.0/6.8/7.0	6.0/6.8/7.0	–	–	–
CC(C)(C)c1cc(-c2sc(C(N)=O)nc2CC2CCCCC2)cc(C(C)(C)C)c1 [Example 5, 4-(Cyclohexylmethyl)-5-(3,5-di-tert-butylphenyl)thiazole-2-carboxamide]	6.7/6.3/6.1	6.7/6.3/6.1	6.7/6.3/6.1	–	–	–

Compound	pIC50 (FF) (RORγ)	pIC50 (REN) (RORγ)	pIC50 (FRET) [1]	IC50 (RORγ; [2])	IC50 (RORγ; [3])	IC50 [1]
C[C@H](NC(=O)c1cc(-c2sc(C(=O)NCC(C)(C)O)nc2CC2CCCCC2)cc(C2(C)CC2)c1)C(F)(F)F [8/6]	7.0/8.2/8.3	7.0/8.2/8.3	7.0/8.2/8.3	–	–	–
C[C@H](NS(=O)(=O)c1ccc(-c2sc(C(=O)NC3CCOCC3)nc2CC2CCCCC2)c2ccccc12)C(F)(F)F [6/12]	–	–	–	2 nM	2 nM	126 nM
CC1(C)COCCN1Cc1ccc(-c2sc(C(=O)NC3CCS(=O)(=O)CC3)nc2CC2CCCCC2)c2ccccc12 [7/26]	6.8/7.7/7.9	6.8/7.7/7.9	6.8/7.7/7.9	–	–	–
CC(C)(O)CNC(=O)c1nc(CC2CCCCC2)c(-c2ccc(S(=O)(=O)NC(C)(C)C)c3cccc(F)c23)s1 [19/14]	6.4/6.8/6.9	6.4/6.8/6.9	6.4/6.8/6.9	–	–	–
CC(C)(C)NS(=O)(=O)c1ccc(-c2sc(C(=O)NC3CSC3)nc2CC2CCCCC2)c(Cl)c1Cl [6/30]	7.2/8.7/8.7	7.2/8.7/8.7	7.2/8.7/8.7	–	–	–
CC(C)(C)NS(=O)(=O)c1ccc(-c2sc(S(N)(=O)=O)nc2CC2CCCCC2)cc1C(F)(F)F [13/2]	6.5/6.7/6.8	6.5/6.7/6.8	6.5/6.7/6.8	–	–	–
CC(C)(C)c1cc(-c2sc(C(=O)N[C@H]3C[C@H](C(=O)O)C3)nc2CC2CCCCC2)cc(C(C)(F)F)c1 [7/18]	6.4/7.4/7.4	6.4/7.4/7.4	6.4/7.4/7.4	–	–	–
CCS(=O)(=O)c1ccc(CC(=O)Nc2nc(CC3CCCCC3)c(-c3ccc(S(=O)(=O)NC(C)(C)C)c(C(F)(F)F)c3)s2)cc1 [Example 200/1]	7.1/7.4/7.8	7.1/7.4/7.8	7.1/7.4/7.8	–	–	–
CC(C)(C)NS(=O)(=O)c1ccc(-c2sc(C(=O)NCCC(C)(C)C(N)=O)nc2CC2CCCCC2)cc1C(F)(F)F [Example 10, N-(4-Amino-3,3-dimethyl-4-oxobutyl)-5-(4-(N-(tert-butyl)sulfamoyl)-3-(trifluoromethyl)phenyl)-4-(cyclohexylmethyl)thiazole-2-carboxamide]	5.9/6.9/7.0	5.9/6.9/7.0	5.9/6.9/7.0	–	–	–
CC(C)(C)NS(=O)(=O)c1ccc(-c2sc(S(N)(=O)=O)nc2CC2CCCCC2)c2ccccc12 [13/3]	6.6/7.5/7.7	6.6/7.5/7.7	6.6/7.5/7.7	–	–	–
CC1CCCCN1C(=O)c1nc(C(=O)NCC(C)(C)O)sc1-c1ccc(S(=O)(=O)NC(C)(C)C)c2ccccc12 (stereo not drawn) [304/7]	6.1/7.3/7.3	6.1/7.3/7.3	6.1/7.3/7.3	–	–	–
CC(C)(C)NS(=O)(=O)c1ccc(-c2sc(C(=O)NCC3(O)CCS(=O)(=O)CC3)nc2CC2CCCCC2)c2ccccc12 [6/5]	6.6/8.5/8.7	6.6/8.5/8.7	6.6/8.5/8.7	–	–	–
COC(c1nc(C(=O)NC2CCOCC2)sc1-c1cc(C(C)(C)C)cc(C2(C)CC2)c1)C1CCCCC1 (stereo not drawn) [19/3]	6.8/7.1/7.1	6.8/7.1/7.1	6.8/7.1/7.1	–	–	–
CC(C)(C)c1cc(-c2ccc(C(N)=O)cc2CC2CCCCC2)cc(C(C)(C)C)c1 [Example 209]	6.4/6.2/6.2	6.4/6.2/6.2	6.4/6.2/6.2	–	–	–
CC(C)(C)NS(=O)(=O)c1ccc(-c2sc(C(=O)N[C@H]3C[C@H](C(=O)O)C3)nc2CC2CCCCC2)cc1C(F)(F)F [9/2]	6.9/8.0/8.0	6.9/8.0/8.0	6.9/8.0/8.0	–	–	–
CC(C)(C)c1cc(-c2oc(C(=O)NC3CCOCC3)nc2CC2CCCCC2)cc(C2(C)CC2)c1 [100/18]	6.9/6.9/6.9	6.9/6.9/6.9	6.9/6.9/6.9	–	–	–
CC(C)(C)NS(=O)(=O)c1ccc(-c2sc(C(=O)N[C@H]3C[C@H](C(=O)O)C3)nc2CC2CCCCC2)c2c1CCC2 [9/11]	6.6/8.5/8.5	6.6/8.5/8.5	6.6/8.5/8.5	–	–	–
CC(C)(C)NS(=O)(=O)c1ccc(-c2sc(C(=O)NCCC(C)(C)C(=O)O)nc2CC2CCCCC2)cc1C(F)(F)F [Example 9/1]	6.5/7.4/7.4	6.5/7.4/7.4	6.5/7.4/7.4	–	–	–
O=C(c1nc(CC2CCCCC2)c(-c2ccc(S(=O)(=O)NC3CCOCC3)c3ccccc23)s1)N1CC2(CCS(=O)(=O)CC2)C1 [21/9]	6.2/7.3/7.4	6.2/7.3/7.4	6.2/7.3/7.4	–	–	–
